We go through one molecule from PMC11729640, “Synthesis and evaluation of 6-arylaminobenzamides as positron emission tomography imaging ligands for the sphingosine-1-phosphate-5 receptor” (RSC Medicinal Chemistry, 2025).

In data set [1] the test system is rat brain. The data set can be described thus: Pilot PET in vivo imaging in naïve rats. Details: species or system Sprague–Dawley rats. Conditions: intravenous bolus, n = 3. As to the method:
Following successful preparation of [^18F]TEFM78, PET imaging with rodents was next conducted. On intravenous bolus administration of [^18F]TEFM78, there was rapid uptake of the radiotracer into the rat brain (Fig. 3a), followed by clearance within 20 minutes of the scan starting (Fig. 3b). […] The biodistribution and kinetics of the spinal cord were different from the brain with a lower peak radiotracer uptake but slower clearance (Fig. 3b). […] Typically, low free fraction of compounds can limit brain penetration. However, as shown in the PET images presented in Fig. 3, despite low free fraction, brain penetration of [^18F]TEFM78 is successfully achieved. […]
Fig. 3 Brain and spinal cord kinetics of [^18F]TEFM78 in naïve rats. […] Data expressed as SUV and presented as mean ± SEM, n = 3.
All animal procedures were performed in accordance with the guidelines for care and use of laboratory animals of Edinburgh University and experiments were approved by the Home Office under the Animals (Scientific Procedures) Act 1986, UK. […] Once the PET scans were reconstructed, data was analysed using PMOD image analysis software (PMOD Technologies LLC, Zürich, Switzerland). […] Time activity curves (TACs) were created for each region and PET data expressed as standard uptake value (SUV), calculated as radioactive concentration in the VOI divided by the injected dose and animal's weight.

The nature of data set [2]: Stability of radiotracer by radio-HPLC and radio-TLC. It is filed as physicochemical. The source says: On identification of TEFM78 as the lead compound, a synthetic route to access a suitable precursor for late stage radiofluorination was developed (Scheme 3). Our approach focused on the synthesis of a 6-arylaminobenzamide that could undergo late-stage functionalisation at the 4′-position for subsequent radiofluorination. Nucleophilic aromatic substitution of 9b with 2,6-dimethylaniline (18), followed by Ullmann coupling and amidation gave benzamide 21 in 81% yield over the three steps. Activation of the electron-rich aniline ring was achieved using silver(I) triflimide-catalysed iodination.[17] Following optimisation (solvent and reaction time), this gave 22 in 54% yield. Subsequent Pd(0)-catalysed stannylation gave trimethyltin precursor 23 in 84% yield. The radiosynthesis of [^18F]TEFM78 was then performed using a TRACERlab FXFN automated synthesiser. No-carrier-added [^18F]fluoride from the cyclotron was trapped on a carbonate-pre-conditioned quaternary methyl ammonium (QMA) cartridge, eluted into the reaction vessel and then azeotropically dried. […]
Analytical HPLC was carried out on a Thermo Dionex Ulimate system 3000 equipped with a Berthold FlowStar LB 513 radio flow detector and a DAD-3000 UV detector. […] The nonradioactive standards were detected using a UV wavelength of 254 nm.

Regarding `COc1c(C)ccc(Nc2c(C)cc([18F])cc2C)c1C(N)=O` [[^18F]TEFM78], the “peak standard uptake value (SUV) in the brain” value in data set [1] was 3 g/mL. The “radiochemical purity (RCP) ten hours after production (stability)” value in data set [2] is given as more than 99%.
